pIC50, pKd: −log10 of the molar value. Numbered stars: 1 amine (or outer) side, 2 acyl side, 3 side chain; on linkers, the order of the positions; unused ones are H or OH. Square brackets hold non-standard residues; d marks the D form. Peptide text beside a SMILES is read from it. * marks the point of attachment. Trp(βS-Me,7-OMe) = COc1cccc2c([C@H](C)[C@H](N)C(=O)O)c[nH]c12; Phe(4-SO2NH2) = N[C@@H](Cc1ccc(S(N)(=O)=O)cc1)C(=O)O; Phe(2-F,4-COOH) = N[C@@H](Cc1ccc(C(=O)O)cc1F)C(=O)O; dPro(trans-4-NMe2) = CN(C)[C@@H]1CN[C@@H](C(=O)O)C1; Trp(7-Br) = N[C@@H](Cc1c[nH]c2c(Br)cccc12)C(=O)O; Trp(7-CN) = N#Cc1cccc2c(C[C@H](N)C(=O)O)c[nH]c12; Trp(7-Cl) = N[C@@H](Cc1c[nH]c2c(Cl)cccc12)C(=O)O; Phe(3-CONH2) = NC(=O)c1cccc(C[C@H](N)C(=O)O)c1; Phe(4-CONH2) = NC(=O)c1ccc(C[C@H](N)C(=O)O)cc1; Phe(4-COOH) = N[C@@H](Cc1ccc(C(=O)O)cc1)C(=O)O; 4Pal(3S-Me) = C[C@@H](c1ccncc1)[C@H](N)C(=O)O; Trp(7-aza) = N[C@@H](Cc1c[nH]c2ncccc12)C(=O)O; dPro(trans-4-F) = O=C(O)[C@H]1C[C@H](F)CN1; Pip(5R-OH) = O=C(O)[C@@H]1CC[C@@H](O)CN1; X1 = O=C([C@@H]1CC[C@H](N[*:1])C1)[*:2]; Gly(Nα-CH2CH2CONH2) = NC(=O)CCNCC(=O)O; X31 = O=C(CN(CCc1nnco1)[*:1])[*:2]; Pip(4-aza) = O=C(O)[C@@H]1CNCCN1; 4Pal = N[C@@H](Cc1ccncc1)C(=O)O; dHyp = O=C(O)[C@H]1C[C@H](O)CN1; Cit = NC(=O)NCCC[C@H](N)C(=O)O; aThr = C[C@H](O)[C@H](N)C(=O)O; Ahp(2) = CCCCC[C@H](N)C(=O)O; αMeS = C[C@](N)(CO)C(=O)O; Carboxymethyl = O=C(O)C*; Nle = CCCC[C@H](N)C(=O)O; Sar = CNCC(=O)O
Tests used:
[1] = biological target: T1, TNFα-induced NF-κB signal transduction pathway (TNFR1 signaling) in THP-1 cells (Homo sapiens, UniProt P19438); assay: THP-1 Lucia NF-κB reporter cell assay, inhibition of TNFα-induced NF-κB signaling; type: cell-based; conditions: THP-1 NF-κB Lucia reporter cells, 10 ng/mL TNFα, 16-18 h, secreted luciferase; read-out: THP-1 IC50
T1 sequence (P19438 30-455): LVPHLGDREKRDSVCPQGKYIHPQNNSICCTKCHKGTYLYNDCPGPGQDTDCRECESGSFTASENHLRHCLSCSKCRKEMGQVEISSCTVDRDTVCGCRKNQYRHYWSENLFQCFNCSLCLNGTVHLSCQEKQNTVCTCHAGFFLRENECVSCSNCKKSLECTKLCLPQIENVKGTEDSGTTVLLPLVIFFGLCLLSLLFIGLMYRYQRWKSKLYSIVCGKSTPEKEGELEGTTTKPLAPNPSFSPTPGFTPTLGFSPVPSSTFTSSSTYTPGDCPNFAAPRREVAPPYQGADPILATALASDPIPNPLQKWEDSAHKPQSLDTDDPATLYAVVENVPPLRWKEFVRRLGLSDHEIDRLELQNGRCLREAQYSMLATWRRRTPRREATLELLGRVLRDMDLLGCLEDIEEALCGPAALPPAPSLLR
How it was run: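 IC50 from a 4-parameter logistic fit of secreted luciferase luminescence (QUANTI-Luc), normalised to min/max controls. Reporter THP-1 cells were exposed to peptides for 1 h at 37 °C before 10 ng/mL TNFα (final) was added overnight (16–18 h).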

[2] = biological target: T2, human TNFR1 extracellular domain (ECD) protein (Homo sapiens, UniProt P19438); assay: SPR binding affinity to captured human TNFR1 ECD
T2 construct: HRV 3C protease cleavage site (C); 6His (C, cleaved yes); made in house; host or cells: Sf21 insect cells (baculovirus), secreted
T2 sequence (P19438 30-211): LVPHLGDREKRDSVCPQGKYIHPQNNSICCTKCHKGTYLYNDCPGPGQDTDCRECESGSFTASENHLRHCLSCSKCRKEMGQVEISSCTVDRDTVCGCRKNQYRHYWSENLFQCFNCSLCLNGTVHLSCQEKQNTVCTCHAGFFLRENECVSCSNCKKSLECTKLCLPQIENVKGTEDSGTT
How it was run: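 Insect-cell human receptor ECDs, enzymatically biotinylated, immobilized via streptavidin capture chip. Peptide binding and dissociation measured in RU in pH 7.4 HEPES buffer containing 2% DMSO; chip regenerated per analyte. Rate constants give affinity.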

| SMILES | pIC50 [1] | pKd [2] |
| --- | --- | --- |
| CCCCC[C@@H]1NC(=O)[C@@H]2CC[C@@H](C2)NC(=O)[C@H]([C@@H](C)c2c[nH]c3c(OC)cccc23)NC(=O)CN(C)C(=O)[C@H](Cc2cccc(C(N)=O)c2)NC(=O)[C@H](Cc2ccc(C(N)=O)cc2)NC(=O)[C@](C)(CO)NC(=O)[C@H](Cc2c[nH]c3c(Br)cccc23)NC(=O)[C@H](Cc2ccc(C(=O)O)cc2)NC(=O)[C@H](CC(N)=O)NC(=O)[C@H]2C[C@H](O)CN2C(=O)[C@H](Cc2c[nH]c3ccccc23)NC(=O)[C@@H]2CNCCN2C(=O)[C@H](Cc2ccncc2)NC1=O [SEQ ID NO. 109] (cyclo([4Pal][Pip(4-aza)]W[dHyp]N[Phe(4-COOH)][Trp(7-Br)][αMeS][Phe(4-CONH2)][Phe(3-CONH2)][Sar][Trp(βS-Me,7-OMe)][X1][Ahp(2)])) | 9.10 | 10.30 |
| CCCCC[C@@H]1NC(=O)[C@@H]2CC[C@@H](C2)NC(=O)[C@H]([C@@H](C)c2c[nH]c3c(OC)cccc23)NC(=O)CN(C)C(=O)[C@H](Cc2ccc(C(N)=O)cc2)NC(=O)[C@H](Cc2ccc(C(N)=O)cc2)NC(=O)[C@](C)(CO)NC(=O)[C@H](Cc2c[nH]c3c(C#N)cccc23)NC(=O)[C@H](Cc2ccc(C(=O)O)cc2)NC(=O)[C@H](CC(N)=O)NC(=O)[C@H]2C[C@H](O)CN2C(=O)[C@H](Cc2c[nH]c3ccccc23)NC(=O)[C@H](CCCNC(N)=O)NC(=O)[C@H]([C@@H](C)c2ccncc2)NC1=O [SEQ ID NO. 110] (cyclo([Ahp(2)][4Pal(3S-Me)][Cit]W[dHyp]N[Phe(4-COOH)][Trp(7-CN)][αMeS][Phe(4-CONH2)][Phe(4-CONH2)][Sar][Trp(βS-Me,7-OMe)][X1])) | 8.92 | 9.85 |
| CCCC[C@@H]1NC(=O)[C@@H]2CC[C@@H](C2)NC(=O)[C@H]([C@@H](C)c2c[nH]c3c(OC)cccc23)NC(=O)CN(C)C(=O)[C@H](Cc2ccc(C(N)=O)cc2)NC(=O)[C@H](Cc2ccc(C(N)=O)cc2)NC(=O)[C@](C)(CO)NC(=O)[C@H](Cc2c[nH]c3c(C#N)cccc23)NC(=O)[C@H](Cc2ccc(C(=O)O)cc2)NC(=O)[C@H](CC(N)=O)NC(=O)[C@H]2C[C@H](F)CN2C(=O)[C@H](Cc2c[nH]c3ccccc23)NC(=O)[C@@H]2CC[C@@H](O)CN2C(=O)[C@H](Cc2ccncc2)NC1=O [SEQ ID NO. 114] (cyclo([4Pal][Pip(5R-OH)]W[dPro(trans-4-F)]N[Phe(4-COOH)][Trp(7-CN)][αMeS][Phe(4-CONH2)][Phe(4-CONH2)][Sar][Trp(βS-Me,7-OMe)][X1][Nle])) | 9.05 | 10.70 |
| CCCC[C@@H]1NC(=O)[C@@H]2CC[C@@H](C2)NC(=O)[C@H]([C@@H](C)c2c[nH]c3c(OC)cccc23)NC(=O)CN(C)C(=O)[C@H](Cc2ccc(C(=O)O)cc2)NC(=O)[C@H](Cc2ccc(C(N)=O)cc2)NC(=O)[C@](C)(CO)NC(=O)[C@H](Cc2c[nH]c3c(C#N)cccc23)NC(=O)[C@H](Cc2ccncc2)NC(=O)[C@H](CC(N)=O)NC(=O)CN(CCc2nnco2)C(=O)[C@H](Cc2c[nH]c3ncccc23)NC(=O)[C@@H]2CC[C@@H](O)CN2C(=O)[C@H](Cc2ccncc2)NC1=O [SEQ ID NO. 121] (cyclo([4Pal][Trp(7-CN)][αMeS][Phe(4-CONH2)][Phe(4-COOH)][Sar][Trp(βS-Me,7-OMe)][X1][Nle][4Pal][Pip(5R-OH)][Trp(7-aza)][X31]N)) | 9.05 | 10.70 |
| CCCC[C@@H]1NC(=O)[C@@H]2CC[C@@H](C2)NC(=O)[C@H]([C@@H](C)c2c[nH]c3c(OC)cccc23)NC(=O)CN(C)C(=O)[C@H](Cc2ccc(C(N)=O)cc2)NC(=O)[C@H](Cc2ccc(C(N)=O)cc2)NC(=O)[C@](C)(CO)NC(=O)[C@H](Cc2c[nH]c3c(C#N)cccc23)NC(=O)[C@H](Cc2ccc(C(=O)O)cc2)NC(=O)[C@H]([C@H](C)O)NC(=O)[C@H]2C[C@H](O)CN2C(=O)[C@H](Cc2c[nH]c3ncccc23)NC(=O)[C@@H]2CC[C@@H](O)CN2C(=O)[C@H](Cc2ccncc2)NC1=O [SEQ ID NO. 122] (cyclo([4Pal][Pip(5R-OH)][Trp(7-aza)][dHyp][aThr][Phe(4-COOH)][Trp(7-CN)][αMeS][Phe(4-CONH2)][Phe(4-CONH2)][Sar][Trp(βS-Me,7-OMe)][X1][Nle])) | 9.05 | 10.40 |
| CCCCC[C@@H]1NC(=O)[C@@H]2CC[C@@H](C2)NC(=O)[C@H]([C@@H](C)c2c[nH]c3c(OC)cccc23)NC(=O)CN(C)C(=O)[C@H](Cc2cccc(C(N)=O)c2)NC(=O)[C@H](Cc2ccc(C(N)=O)cc2)NC(=O)[C@](C)(CO)NC(=O)[C@H](Cc2c[nH]c3c(C#N)cccc23)NC(=O)[C@H](Cc2ccc(C(=O)O)cc2)NC(=O)[C@H](CC(N)=O)NC(=O)[C@H]2C[C@H](N(C)C)CN2C(=O)[C@H](Cc2c[nH]c3ccccc23)NC(=O)[C@@H]2CC[C@@H](O)CN2C(=O)[C@H](Cc2ccncc2)NC1=O [SEQ ID NO. 128] (cyclo([4Pal][Pip(5R-OH)]W[dPro(trans-4-NMe2)]N[Phe(4-COOH)][Trp(7-CN)][αMeS][Phe(4-CONH2)][Phe(3-CONH2)][Sar][Trp(βS-Me,7-OMe)][X1][Ahp(2)])) | 9.10 | 10.70 |
| CCCC[C@@H]1NC(=O)[C@@H]2CC[C@@H](C2)NC(=O)[C@H]([C@@H](C)c2c[nH]c3c(OC)cccc23)NC(=O)CN(C)C(=O)[C@H](Cc2ccc(C(=O)O)cc2)NC(=O)[C@H](Cc2ccc(C(N)=O)cc2)NC(=O)[C@](C)(CO)NC(=O)[C@H](Cc2c[nH]c3c(C#N)cccc23)NC(=O)[C@H](Cc2ccc(C(=O)O)cc2)NC(=O)[C@H](CC(N)=O)NC(=O)CN(CCC(N)=O)C(=O)[C@H](Cc2c[nH]c3ccccc23)NC(=O)[C@@H]2CC[C@@H](O)CN2C(=O)[C@H](Cc2ccncc2)NC1=O [SEQ ID NO. 130] (cyclo([4Pal][Pip(5R-OH)]W[Gly(Nα-CH2CH2CONH2)]N[Phe(4-COOH)][Trp(7-CN)][αMeS][Phe(4-CONH2)][Phe(4-COOH)][Sar][Trp(βS-Me,7-OMe)][X1][Nle])) | 9.15 | 10.22 |
| CCCC[C@@H]1NC(=O)[C@@H]2CC[C@@H](C2)NC(=O)[C@H]([C@@H](C)c2c[nH]c3c(OC)cccc23)NC(=O)CN(C)C(=O)[C@H](Cc2ccc(C(=O)O)cc2F)NC(=O)[C@H](Cc2ccc(S(N)(=O)=O)cc2)NC(=O)[C@](C)(CO)NC(=O)[C@H](Cc2c[nH]c3c(C#N)cccc23)NC(=O)[C@H](Cc2ccc(C(=O)O)cc2F)NC(=O)[C@H](CC(N)=O)NC(=O)[C@H]2C[C@H](OCC(=O)O)CN2C(=O)[C@H](Cc2c[nH]c3ncccc23)NC(=O)[C@@H]2CC[C@@H](O)CN2C(=O)[C@H](Cc2ccncc2)NC1=O [SEQ ID NO. 134] (cyclo([4Pal][Pip(5R-OH)][Trp(7-aza)][dHyp](Carboxymethyl)N[Phe(2-F,4-COOH)][Trp(7-CN)][αMeS][Phe(4-SO2NH2)][Phe(2-F,4-COOH)][Sar][Trp(βS-Me,7-OMe)][X1][Nle])) | 9.40 | 10.30 |
| CCCCC[C@@H]1NC(=O)[C@@H]2CC[C@@H](C2)NC(=O)[C@H]([C@@H](C)c2c[nH]c3c(OC)cccc23)NC(=O)CN(C)C(=O)[C@H](Cc2ccc(C(N)=O)cc2)NC(=O)[C@H](Cc2ccc(C(N)=O)cc2)NC(=O)[C@](C)(CO)NC(=O)[C@H](Cc2c[nH]c3c(C#N)cccc23)NC(=O)[C@H](Cc2ccc(C(=O)O)cc2)NC(=O)[C@H](CC(N)=O)NC(=O)[C@H]2C[C@H](OCC(=O)O)CN2C(=O)[C@H](Cc2c[nH]c3ccccc23)NC(=O)[C@@H]2CNCCN2C(=O)[C@H](Cc2ccncc2)NC1=O [SEQ ID NO. 140] (cyclo([4Pal][Pip(4-aza)]W[dHyp](Carboxymethyl)N[Phe(4-COOH)][Trp(7-CN)][αMeS][Phe(4-CONH2)][Phe(4-CONH2)][Sar][Trp(βS-Me,7-OMe)][X1][Ahp(2)])) | 9.30 | 10.30 |
| CCCC[C@@H]1NC(=O)[C@@H]2CC[C@@H](C2)NC(=O)[C@H]([C@@H](C)c2c[nH]c3c(OC)cccc23)NC(=O)CN(C)C(=O)[C@H](Cc2ccc(O)cc2)NC(=O)[C@H](Cc2ccc(C(=O)O)cc2)NC(=O)[C@](C)(CO)NC(=O)[C@H](Cc2c[nH]c3c(Cl)cccc23)NC(=O)[C@H](Cc2ccncc2)NC(=O)[C@H](CC(N)=O)NC(=O)CN(C)C(=O)[C@H](Cc2c[nH]c3ccccc23)NC(=O)[C@@H]2CNCCN2C(=O)[C@H](Cc2ccncc2)NC1=O [SEQ ID NO. 141] (cyclo([4Pal][Trp(7-Cl)][αMeS][Phe(4-COOH)]Y[Sar][Trp(βS-Me,7-OMe)][X1][Nle][4Pal][Pip(4-aza)]W[Sar]N)) | 8.92 | 10.22 |

— US20240287138A1, “CYCLIC PEPTIDES FOR INHIBITING TNF RECEPTOR 1 ACTIVITY” (Merck Sharp & Dohme LLC, priority 2023, published 2024)
